Entries after “also recorded” stand apart in the source; their conditions may differ.
What was measured:
IKur = molecular target: T1, IKur (Homo sapiens, UniProt P22460); assay: IKur in human atrial myocytes, whole-cell patch clamp; assay type: cell-based; conditions: for inhibition of voltage-dependent IKur (tail and step currents), in words: 3, 10 and 30 μM
T1 construct: endogenous in cells; host or cells: human right atrial myocytes, freshly isolated
Description: Atrial cells were isolated from specimens of human right atrial appendage obtained from patients (56.1±4.7 years old) undergoing coronary artery bypass grafting. […] After excision, the samples were quickly immersed in oxygenated, normally Ca^2+-free cardioplegic solution for transport to the laboratory. […] Briefly, the atrial tissue was minced, and gently agitated by continuous bubbling with 100% O2 in a Ca^2+-free Tyrode solution for 15 min (5 min at a time in fresh solutions), and then incubated for 50 min in a similar solution containing 150-200 U/ml collagenase (CLS II, Worthington Biochemical, Freehold, N.J., USA), 0.2 mg/ml protease (type XXIV, Sigma-Aldrich Chemical, St Louis, Mo., USA.) and 1 mg/ml bovine serum albumin (Sigma-Aldrich). After then, the chunks were re-incubated in a fresh enzyme solution of the same composition but no protease. The quantity and quality of isolated cells were monitored under a microscope. When the cell yield appeared optimal, the chunks were suspended in a high K medium containing (mM) 10 KCl, 120 K-glutamate, 10 KH2PO4, 1.8 MgSO4, 10 taurine, 10 HEPES, 0.5 EGTA, 20 glucose, 10 mannitol, pH was adjusted to 7.3 with KOH and gently blown with a pipette. The isolated myocytes were kept at room temperature in the medium at least 1 h before use.
The Ca^2+-free cardioplegic solution for specimen transport contained (in mM) 50 KH2PO4, 8 MgSO4, 5 adenosine, 10 HEPES, 140 glucose, 100 mannitol, 10 taurine, pH was adjusted to 7.3 with KOH. Tyrode solution contained (in mM) 140 NaCl, 5.4 KCl, 1 MgCl2, 1 CaCl2, 0.33 NaH2PO4, 10 HEPES, 10 glucose, pH was adjusted to 7.4 with NaOH. The pipette solution contained (in mM) 20 KCl, 110 K-aspartate, 1 MgCl2, 10 HEPES, 5 EGTA, 0.1 GTP, 5 Na2-phosphocreatine, and 5 Mg2-ATP, pH was adjusted to 7.2 with KOH. For Ito and IKur recording, BaCl2 (200 μM) and CdCl2 (200 μM) were added to the superfusion to block IK1 and ICa.L. Atropine (1.0 μM) was used to minimize possible IK.ACh contamination during the current recording. For ICa.L recording, K^+ in pipette and Tyrode solution was replaced by CsCl. INa was recorded under conditions of K^+-free and a symmetrical Na^+ (5 mM) in pipette and superfusion solutions as described previously (Li at al., 2002a).
A small aliquot of the solution containing the isolated cells was placed in an open perfusion chamber (1-ml) mounted on the stage of an inverted microscope. […]
The whole-cell patch-clamp technique was used for electrophysiological recording. […] Membrane currents were recorded in voltage-clamp mode using an EPC-9 amplifier and Pulse software (HEKA, Lambrecht, Germany). […] The cell membrane capacitance (pF) was directly measured using the lock-in module of the Pulse software, and used for normalizing the current in individual cells.

[1] = molecular target: IKs channels (hKCNQ1/hKCNE1) (Homo sapiens, UniProt P51787); assay: IKs in HEK 293 cells stably expressing hKCNQ1/hKCNE1; assay type: cell-based; conditions: for inhibition of IKs amplitude, in words: 30 μM
Description: The established HEK 293 cell lines stably expressing the hERG channel gene, Kv1.5 (Tang et al., 2007), or recombinant human cardiac KCNQ1/KCNE1 channel current (IKs) (Dong et al., 2006) was maintained separately in Dulbecco's modified eagle medium (Invitrogen) supplemented with 10% fetal bovine serum and containing 400 μg/ml G418 (for hERG or Kv1.5 channels) or 100 μg/ml hygromycin (for IKs).
(§1) The whole-cell patch-clamp technique was used for electrophysiological recording. Borosilicate glass electrodes (1.2-mm OD) were pulled with a Brown-Flamming puller (model P-97, Sutter Instrument Co, Novato, Calif., USA) and had tip resistances of 2-3 MΩ when filled with pipette solution. Membrane currents were recorded in voltage-clamp mode using an EPC-9 amplifier and Pulse software (HEKA, Lambrecht, Germany). A 3-M KCl-agar salt bridge was used as reference electrode. The tip potentials were compensated before the pipette touched the cell. After a giga-ohm seal was obtained, the cell membrane was ruptured by gentle suction to establish the whole-cell configuration. The cell membrane capacitance (pF) was directly measured using the lock-in module of the Pulse software, and used for normalizing the current in individual cells. The series resistance (Rs) was 3-5 MΩ and was compensated by 50-70% to minimize voltage errors. Perforated patch configuration was used for recording action potential in human atrial cells and IKs in HEK 293 cells as described previously (Li et al., 2002b; Dong et al., 2006). Current signals were low-pass filtered at 5 kHz and stored on the hard disk of an IBM compatible computer.

IK.ACh = assay: Carbachol-evoked IK.ACh in guinea pig atrial myocytes; assay type: cell-based; conditions: for IK.ACh at +50 mV / IK.ACh at −100 mV: carbachol 5 μM; for IK.ACh at +50 mV: control 147.2; for IK.ACh at −100 mV: control −338.3±61.5; for block of carbachol-evoked IK.ACh, in words: 3 and 10 μM
Description: (§2) Guinea pigs of either gender (250-300 g) were sacrificed by cervical dislocation after anesthetization with pentobarbital (40 mg kg, i.p.). The procedure related to the use of animals in this invention was approved by the Animal Care and Use Committee for Teaching and Research of University of Hong Kong in accordance with the Guide for the Care and Use of Laboratory Animals (Institute of Laboratory Animal Resources, Commission on Life Sciences, National Research Council, 1996). Left atrial and ventricular myocytes from guinea pig hearts were enzymatically dissociated by the procedure described previously (Li et al., 2002a) and the isolated myocytes were kept in the K^+ storage medium.
as §1

Kunmin mice = assay: Acute toxicity in mice; assay type: in vivo; conditions: oral, two-week observation
Description: The animals were observed closely with a two-week duration for death number and activity.

anesthetized dogs = assay: In vivo electrophysiology (atrial ERP, QTc) in anesthetized dogs; set-up: species or system dog; conditions: 5 mg/kg intraduodenal, BCL 200 ms, pre-treatment (baseline)
Description: Adult mongrel dogs (12-15 kg) were anesthetized with pentobarbital (30 mg/kg i.v.), supplemented during the experiment when needed. The animal was intubated and ventilated with room air. Body temperature was maintained at 37-38° C. with a temperature control system. The left femoral vein was cannulated for maintenance of anesthesia and introducing the mono-phasic action potential (MAP) recording- and pacing-catheters (Boston Scientific Ltd) to the right atrium. The vagus nerves were isolated and divided in the neck. […] A left thoracotomy was performed in the fourth intercostal space, and the pericardium was incised to provide access to the left atrium for introducing the MAP catheter. The catheters were used for recording MAPs of right and left atria, respectively, and for measurement of effective refractory period (ERP). […] A ligation was made at the pylorus with a thick cotton thread to prevent the possible back flow of the duodenum content.
Following a 30-min equilibration period and measurement of atrial excitation threshold with 2-ms duration of stimuli, atrial ERP was determined using a train of 8 basic stimuli (S1, twice-diastolic threshold) followed by an identical premature stimulus (S2). The basic cycle lengths (BCL) of 200, 250 and 300 ms were applied in both right and left atria. S2 was initially delivered late in diastole in 5-ms decrements until a response was not elicited by the S2 indicated on the MAP recording. The ERP was defined as the longest S1-S2 interval failing a propagated response, and the procedure was repeated for three times for each measurement. MAP, ECG and blood pressure signals were continuously monitored and stored on an IBM compatible PC computer using a multiple channels data acquisition system (RM-6280C, Chengdu Instrument Ltd, Chendu, China).
The ERP measurement was then repeated every hour post drug administration for 6 hours. Excitation threshold of both right and left atria was verified before ERP each measurement. • 1.7.2.
The ERPs were determined in anesthetized dogs using the BCLs of 300, 250, and 200 ms by introducing S1-S2 via a programmed cardiac stimulator (FIG. 10A).

[2] = Water solubility (statement); assay type: physicochemical; conditions: for injection application
INa = INa in guinea pig ventricular myocytes; assay type: cell-based; conditions: 30 and 100 μM
Description: as §2
The Ca^2+-free cardioplegic solution for specimen transport contained (in mM) 50 KH2PO4, 8 MgSO4, 5 adenosine, 10 HEPES, 140 glucose, 100 mannitol, 10 taurine, pH was adjusted to 7.3 with KOH. Tyrode solution contained (in mM) 140 NaCl, 5.4 KCl, 1 MgCl2, 1 CaCl2, 0.33 NaH2PO4, 10 HEPES, 10 glucose, pH was adjusted to 7.4 with NaOH. […] INa was recorded under conditions of K^+-free and a symmetrical Na^+ (5 mM) in pipette and superfusion solutions as described previously (Li at al., 2002a).
The whole-cell patch-clamp technique was used for electrophysiological recording. […] Membrane currents were recorded in voltage-clamp mode using an EPC-9 amplifier and Pulse software (HEKA, Lambrecht, Germany). […]

hERG channels = hERG channels (Homo sapiens, UniProt Q12809); assay: cell-based
Sequence of hERG channels (Q12809 whole entry): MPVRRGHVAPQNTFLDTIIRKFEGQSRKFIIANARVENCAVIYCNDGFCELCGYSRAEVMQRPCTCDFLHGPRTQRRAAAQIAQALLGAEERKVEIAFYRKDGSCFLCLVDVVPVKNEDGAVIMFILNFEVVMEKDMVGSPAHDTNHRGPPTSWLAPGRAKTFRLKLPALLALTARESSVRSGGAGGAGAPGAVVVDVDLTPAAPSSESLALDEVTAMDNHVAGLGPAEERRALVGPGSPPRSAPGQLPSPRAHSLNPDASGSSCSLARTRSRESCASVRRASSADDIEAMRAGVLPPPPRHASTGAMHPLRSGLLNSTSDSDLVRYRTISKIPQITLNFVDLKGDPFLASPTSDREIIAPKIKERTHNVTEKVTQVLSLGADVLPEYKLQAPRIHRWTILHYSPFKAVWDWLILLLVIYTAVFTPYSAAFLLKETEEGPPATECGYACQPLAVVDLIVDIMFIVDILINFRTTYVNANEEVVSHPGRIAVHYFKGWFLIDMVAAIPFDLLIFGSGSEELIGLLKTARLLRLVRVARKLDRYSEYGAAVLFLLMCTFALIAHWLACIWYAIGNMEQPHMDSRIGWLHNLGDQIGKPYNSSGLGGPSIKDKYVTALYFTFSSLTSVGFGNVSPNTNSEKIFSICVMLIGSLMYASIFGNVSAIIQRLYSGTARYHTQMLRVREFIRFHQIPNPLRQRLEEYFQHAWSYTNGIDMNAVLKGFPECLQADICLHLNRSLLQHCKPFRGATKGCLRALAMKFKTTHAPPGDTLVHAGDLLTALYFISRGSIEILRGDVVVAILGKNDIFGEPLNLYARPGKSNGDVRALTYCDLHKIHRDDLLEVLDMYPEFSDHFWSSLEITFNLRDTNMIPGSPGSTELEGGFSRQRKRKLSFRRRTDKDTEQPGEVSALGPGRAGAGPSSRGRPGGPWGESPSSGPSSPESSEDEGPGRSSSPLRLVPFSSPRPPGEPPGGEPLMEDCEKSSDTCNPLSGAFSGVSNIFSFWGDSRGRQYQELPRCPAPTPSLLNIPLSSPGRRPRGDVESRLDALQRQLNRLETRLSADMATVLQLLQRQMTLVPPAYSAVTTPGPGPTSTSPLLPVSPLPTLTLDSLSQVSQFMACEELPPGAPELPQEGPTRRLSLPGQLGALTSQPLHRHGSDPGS

T1 sequence (P22460 whole entry): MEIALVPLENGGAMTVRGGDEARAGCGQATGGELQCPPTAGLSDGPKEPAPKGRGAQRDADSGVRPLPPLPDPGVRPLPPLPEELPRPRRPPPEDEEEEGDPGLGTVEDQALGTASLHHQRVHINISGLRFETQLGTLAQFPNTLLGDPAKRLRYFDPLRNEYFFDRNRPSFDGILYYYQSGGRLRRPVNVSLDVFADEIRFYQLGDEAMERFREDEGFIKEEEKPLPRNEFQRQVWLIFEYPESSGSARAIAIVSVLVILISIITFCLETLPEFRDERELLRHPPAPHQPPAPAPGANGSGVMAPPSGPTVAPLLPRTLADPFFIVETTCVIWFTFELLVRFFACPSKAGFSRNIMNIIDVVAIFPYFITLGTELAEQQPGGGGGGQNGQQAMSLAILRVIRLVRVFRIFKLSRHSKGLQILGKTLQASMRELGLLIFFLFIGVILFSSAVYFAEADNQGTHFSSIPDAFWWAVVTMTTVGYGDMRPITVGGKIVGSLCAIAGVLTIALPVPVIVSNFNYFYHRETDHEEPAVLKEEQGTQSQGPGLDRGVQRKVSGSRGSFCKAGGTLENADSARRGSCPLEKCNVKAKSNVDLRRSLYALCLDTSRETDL

For `COc1ccc(-c2cc(=O)c3c(O)cc(O)cc3o2)cc1` [Acacetin, 5,7-dihydroxy-4′-methoxyflavone], the “inhibition of voltage-dependent IKur (tail and step currents), in words” value (IKur) was “substantially inhibited”, the “inhibition of voltage-dependent IKur (tail and step currents), in words” value (IKur; listed as acacetin) was “suppressed” and the “effect on IKur in human atrial myocytes, in words” value (IKur; extract fraction / isolated compound, concentration not given) was “blocking effect”. The IC50 (IKur; human atrial myocytes, +40 mV, 0.3 to 100 μM, Hill equation fit, read-out: IC50 for inhibiting IKur) was 3.2 µM, the “inhibition of IKs amplitude, in words” value [1] was “significantly inhibited” and the “inhibition of IKs amplitude, in words” value ([1]; listed as acacetin) was “inhibited”. For the same compound, the IC50 ([1]; HEK 293 cells, IKs.step, +40 mV, read-out: IC50 for inhibiting IKs) was 81.4 µM, the “IK.ACh at +50 mV” value (IK.ACh; 3 μM, n=5) was 87.8±36.1 pA and the “IK.ACh at −100 mV” value (IK.ACh; 3 μM, n=5) was −180.2±36.7 pA. For the same compound, the “IK.ACh at +50 mV” value (IK.ACh; 10 μM, n=6) was 55.7±26.2 pA, the “IK.ACh at −100 mV” value (IK.ACh; 10 μM, n=6) was −75.6±21.1 pA and the “block of carbachol-evoked IK.ACh, in words” value (IK.ACh) was “substantially blocked”. For the same compound, the “block of carbachol-evoked IK.ACh, in words” value (IK.ACh; listed as acacetin) was “substantially inhibits”, the “abnormal activity compared to vehicle-control animals” value (Kunmin mice; 0.3 g/kg three times) was “no abnormal activity” and the animal death (Kunmin mice; 900 mg/kg (0.3 g/kg three times at intervals of 1.5 h), 900 mg/kg) was “no animal death”. The “right atrial ERP (ms), BCL 200 ms” value (anesthetized dogs) was 87.2 ± 7.9 ms, the “water solubility, in words” value [2] was “not water soluble” and the “effect on INa, in words” value (INa) was “no effect; also recorded: no inhibition”. For the same compound, the “effect on INa, in words” value (INa; listed as acacetin) was “no effects” and the IC50 (hERG channels) was 32.4 µM.

Source: US7816400B2 (The University of Hong Kong, priority 2007, dated 2010)
